Our source for the IC50 values is article PMC12669039 (Nature Microbiology, 2025).

Molecules are shown by their SMILES.

The target of this assay is T1, HSV-1 helicase–primase (HP) complex (UL5/UL52/UL8) (Human alphaherpesvirus 1 strain 17, UniProt P10189+P10236).
T1 sequence (P10189 1-882): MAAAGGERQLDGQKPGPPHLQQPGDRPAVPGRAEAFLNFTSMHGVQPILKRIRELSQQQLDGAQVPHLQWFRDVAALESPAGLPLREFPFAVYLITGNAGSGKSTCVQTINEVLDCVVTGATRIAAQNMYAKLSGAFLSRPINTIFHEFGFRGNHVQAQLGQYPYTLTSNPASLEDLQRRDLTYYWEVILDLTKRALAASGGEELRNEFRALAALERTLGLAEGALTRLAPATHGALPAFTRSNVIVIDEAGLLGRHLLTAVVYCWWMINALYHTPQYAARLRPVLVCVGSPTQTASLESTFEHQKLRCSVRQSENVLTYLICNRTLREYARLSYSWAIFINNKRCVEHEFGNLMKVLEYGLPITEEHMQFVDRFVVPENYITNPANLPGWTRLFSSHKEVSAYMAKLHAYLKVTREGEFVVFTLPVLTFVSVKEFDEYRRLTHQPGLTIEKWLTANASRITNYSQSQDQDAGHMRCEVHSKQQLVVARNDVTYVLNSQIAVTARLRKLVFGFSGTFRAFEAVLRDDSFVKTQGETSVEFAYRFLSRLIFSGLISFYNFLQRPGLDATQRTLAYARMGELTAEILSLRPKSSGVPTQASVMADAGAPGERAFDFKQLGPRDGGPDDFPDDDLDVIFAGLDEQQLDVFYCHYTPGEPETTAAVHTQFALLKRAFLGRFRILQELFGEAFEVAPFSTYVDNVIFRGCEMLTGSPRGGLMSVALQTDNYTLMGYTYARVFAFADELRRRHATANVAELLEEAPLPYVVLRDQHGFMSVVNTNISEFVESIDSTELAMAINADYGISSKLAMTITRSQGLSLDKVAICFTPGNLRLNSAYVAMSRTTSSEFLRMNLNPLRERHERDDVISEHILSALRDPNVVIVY
T1 sequence (P10236 1-1058): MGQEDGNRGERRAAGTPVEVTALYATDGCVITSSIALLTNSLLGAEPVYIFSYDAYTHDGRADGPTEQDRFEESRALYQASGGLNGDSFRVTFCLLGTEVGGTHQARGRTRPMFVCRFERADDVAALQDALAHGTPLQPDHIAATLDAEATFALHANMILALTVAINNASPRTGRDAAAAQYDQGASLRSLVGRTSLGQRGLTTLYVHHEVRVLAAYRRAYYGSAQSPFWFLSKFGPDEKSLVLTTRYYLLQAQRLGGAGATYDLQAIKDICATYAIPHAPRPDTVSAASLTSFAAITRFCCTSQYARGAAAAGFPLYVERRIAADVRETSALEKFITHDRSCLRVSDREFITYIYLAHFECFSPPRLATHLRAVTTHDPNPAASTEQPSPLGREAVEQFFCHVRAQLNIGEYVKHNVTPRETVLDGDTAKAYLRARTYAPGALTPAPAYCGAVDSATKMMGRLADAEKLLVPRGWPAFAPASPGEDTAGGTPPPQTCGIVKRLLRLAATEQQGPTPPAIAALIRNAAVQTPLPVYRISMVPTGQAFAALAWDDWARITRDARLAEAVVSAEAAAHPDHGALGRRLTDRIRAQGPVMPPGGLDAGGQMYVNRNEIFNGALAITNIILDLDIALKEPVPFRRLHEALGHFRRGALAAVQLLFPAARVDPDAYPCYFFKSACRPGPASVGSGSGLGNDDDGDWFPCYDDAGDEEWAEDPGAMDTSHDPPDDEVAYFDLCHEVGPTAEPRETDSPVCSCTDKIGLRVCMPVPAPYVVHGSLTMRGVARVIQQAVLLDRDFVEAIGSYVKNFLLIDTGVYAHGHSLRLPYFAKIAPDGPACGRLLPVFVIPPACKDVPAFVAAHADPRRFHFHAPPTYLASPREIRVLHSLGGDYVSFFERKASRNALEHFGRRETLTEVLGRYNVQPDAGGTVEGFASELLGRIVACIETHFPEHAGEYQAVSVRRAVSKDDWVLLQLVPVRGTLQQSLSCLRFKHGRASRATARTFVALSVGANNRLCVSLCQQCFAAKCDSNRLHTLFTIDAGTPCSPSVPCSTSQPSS
T1 sequence (P10192 1-750 partner): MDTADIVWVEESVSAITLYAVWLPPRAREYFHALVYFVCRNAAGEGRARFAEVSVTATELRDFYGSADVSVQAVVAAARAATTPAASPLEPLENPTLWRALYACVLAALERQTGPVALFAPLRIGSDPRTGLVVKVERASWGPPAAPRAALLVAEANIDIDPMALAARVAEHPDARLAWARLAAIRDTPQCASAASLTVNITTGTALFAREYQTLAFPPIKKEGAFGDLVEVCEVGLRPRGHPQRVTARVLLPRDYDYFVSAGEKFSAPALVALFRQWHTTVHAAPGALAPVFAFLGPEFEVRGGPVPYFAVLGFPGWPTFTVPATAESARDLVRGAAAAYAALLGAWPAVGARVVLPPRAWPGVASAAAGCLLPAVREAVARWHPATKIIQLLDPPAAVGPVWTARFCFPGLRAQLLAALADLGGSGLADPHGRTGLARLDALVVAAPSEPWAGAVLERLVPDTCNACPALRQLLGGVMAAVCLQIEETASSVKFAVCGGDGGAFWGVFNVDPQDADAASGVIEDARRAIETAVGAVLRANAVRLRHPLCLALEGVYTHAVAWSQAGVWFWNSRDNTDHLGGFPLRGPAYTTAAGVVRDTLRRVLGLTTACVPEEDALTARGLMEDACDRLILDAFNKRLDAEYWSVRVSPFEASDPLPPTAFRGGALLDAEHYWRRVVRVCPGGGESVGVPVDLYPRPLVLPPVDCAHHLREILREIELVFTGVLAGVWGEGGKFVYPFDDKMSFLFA
The assay can be described thus: fluorescent forked-DNA unwinding. In kind it is biochemical.

Regarding `Cc1cccc(C)c1N(CC(=O)Nc1ccc(-c2ncon2)cc1)C(=O)C1CCS(=O)(=O)CC1` [AMNV, amenamevir], the IC50 (in general, the concentration needed to halve the response being measured) amounted to 3.5 nM.
The figure for `Cc1nc(N(C)C(=O)Cc2ccc(-c3ccccn3)cc2)sc1S(N)(=O)=O` [PTV, pritelivir] is 11.1 nM.
